The record followed here is ChEMBL document CHEMBL2429812, “Exploring multitarget interactions to reduce opiate withdrawal syndrome and psychiatric comorbidity” (ACS Med Chem Lett, 2013).

The source made the active and inactive calls. The calls are words filed in the database; no cut-off is given here.

Assay [1] concerns the target T1, Alpha-2A adrenergic receptor (Homo sapiens, UniProt P08913).
T1 sequence (P08913 whole entry): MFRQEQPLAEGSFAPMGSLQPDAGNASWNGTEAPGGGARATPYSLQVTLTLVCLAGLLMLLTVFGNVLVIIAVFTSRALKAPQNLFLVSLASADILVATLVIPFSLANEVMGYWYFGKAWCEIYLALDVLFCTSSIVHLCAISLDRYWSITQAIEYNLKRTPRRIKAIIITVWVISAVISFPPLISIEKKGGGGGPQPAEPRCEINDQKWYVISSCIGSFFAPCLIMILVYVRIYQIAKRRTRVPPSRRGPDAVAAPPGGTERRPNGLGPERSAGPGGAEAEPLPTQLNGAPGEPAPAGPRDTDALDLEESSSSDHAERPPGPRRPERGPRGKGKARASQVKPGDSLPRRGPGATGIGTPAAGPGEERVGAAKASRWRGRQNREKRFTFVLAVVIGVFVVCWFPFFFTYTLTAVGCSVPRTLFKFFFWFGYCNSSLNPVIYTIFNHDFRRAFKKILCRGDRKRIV
The experiment in a line: Binding affinity at human alpha2A AR.

Assay [2] deals with T2, Alpha-2C adrenergic receptor (Homo sapiens, UniProt P18825).
T2 sequence (P18825 whole entry): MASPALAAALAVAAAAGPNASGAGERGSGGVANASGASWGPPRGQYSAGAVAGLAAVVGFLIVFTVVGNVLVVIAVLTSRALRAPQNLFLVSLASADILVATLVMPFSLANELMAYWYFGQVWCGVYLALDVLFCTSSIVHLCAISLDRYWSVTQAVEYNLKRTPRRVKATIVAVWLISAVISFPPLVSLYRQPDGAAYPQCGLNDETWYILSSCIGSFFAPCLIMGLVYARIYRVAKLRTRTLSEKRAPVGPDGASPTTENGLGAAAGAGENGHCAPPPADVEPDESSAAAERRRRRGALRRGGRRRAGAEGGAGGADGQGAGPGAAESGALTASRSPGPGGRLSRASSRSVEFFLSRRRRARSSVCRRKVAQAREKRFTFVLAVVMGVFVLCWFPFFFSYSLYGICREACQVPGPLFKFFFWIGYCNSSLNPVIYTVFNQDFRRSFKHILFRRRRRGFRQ
Nature of the assay: Binding affinity at human alpha2C AR.

The nature of assay [3]: Binding affinity to I2 imidazoline binding site in rat brain membrane. In kind it is cell membranes.
The target in assay [4] is T3, 5-hydroxytryptamine receptor 1A (Homo sapiens) (UniProt P08908).
T3 sequence (whole entry): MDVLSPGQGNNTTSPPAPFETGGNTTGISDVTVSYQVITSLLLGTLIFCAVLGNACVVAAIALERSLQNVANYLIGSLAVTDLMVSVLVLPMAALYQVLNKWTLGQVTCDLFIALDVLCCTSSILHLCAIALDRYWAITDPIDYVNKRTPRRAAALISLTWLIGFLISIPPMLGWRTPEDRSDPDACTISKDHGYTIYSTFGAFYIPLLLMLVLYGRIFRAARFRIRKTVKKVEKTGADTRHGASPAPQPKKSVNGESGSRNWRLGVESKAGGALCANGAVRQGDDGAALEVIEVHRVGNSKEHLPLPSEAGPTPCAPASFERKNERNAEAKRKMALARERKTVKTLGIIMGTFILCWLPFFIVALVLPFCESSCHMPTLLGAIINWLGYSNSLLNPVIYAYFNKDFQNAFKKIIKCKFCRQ
The experiment in a line: Agonist activity at human 5HT1A receptor relative to control.

Assay [5] concerns the target T4, Alpha-2C adrenergic receptor (Homo sapiens) (UniProt P18825).
T4 sequence (whole entry): T2 sequence (P18825 whole entry)
The experiment in a line: Agonist activity at human alpha2C AR assessed as intrinsic activity.

Assay [6] concerns the target T2, Alpha-2C adrenergic receptor. Nature of the assay: Agonist activity at human alpha2C AR.
Assay [7] addresses T5, Alpha-2B adrenergic receptor (Homo sapiens, UniProt P18089).
T5 sequence (P18089 whole entry): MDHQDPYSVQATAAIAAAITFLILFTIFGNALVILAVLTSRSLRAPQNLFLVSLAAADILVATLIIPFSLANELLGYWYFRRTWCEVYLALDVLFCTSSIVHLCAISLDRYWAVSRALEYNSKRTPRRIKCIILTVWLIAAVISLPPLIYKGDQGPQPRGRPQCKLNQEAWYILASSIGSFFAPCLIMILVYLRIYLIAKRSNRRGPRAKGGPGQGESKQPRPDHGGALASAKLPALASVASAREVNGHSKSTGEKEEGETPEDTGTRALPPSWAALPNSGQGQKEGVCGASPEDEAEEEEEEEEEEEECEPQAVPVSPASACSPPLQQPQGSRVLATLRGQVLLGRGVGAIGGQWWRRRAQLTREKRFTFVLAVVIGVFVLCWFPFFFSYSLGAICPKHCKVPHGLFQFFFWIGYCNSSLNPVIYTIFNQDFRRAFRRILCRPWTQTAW
The experiment in a line: Binding affinity at human alpha2B AR.

In assay [8] the target is T3, 5-hydroxytryptamine receptor 1A (Homo sapiens). Nature of the assay: Agonist activity at human 5HT1A receptor.
The target of assay [9] is T6, Alpha-2B adrenergic receptor (Homo sapiens) (UniProt P18089).
T6 sequence (whole entry): T5 sequence (P18089 whole entry)
The experiment in a line: Agonist activity at human alpha2B AR assessed as intrinsic activity.

Assay [10] addresses T5, Alpha-2B adrenergic receptor. The experiment in a line: Agonist activity at human alpha2B AR.
Assay [11] concerns the target T7, Alpha-2A adrenergic receptor (Homo sapiens) (UniProt P08913).
T7 sequence (whole entry): T1 sequence (P08913 whole entry)
The experiment in a line: Antagonist activity at human alpha2A AR.

Assay [12] deals with T8, 5-hydroxytryptamine receptor 1A (Homo sapiens, UniProt P08908).
T8 sequence (P08908 whole entry): T3 sequence (whole entry)
Nature of the assay: Binding affinity at human 5HT1A receptor.

Assay [13] deals with T3, 5-hydroxytryptamine receptor 1A (Homo sapiens). The experiment in a line: Agonist activity at human 5HT1A receptor assessed as intrinsic activity.
The test system of the next assay is Mus musculus. The experiment in a line: Antidepressant-like activity in mouse assessed as reduction in immobility time at 0.05 mg/kg, ip by forced swimming test. In kind it is functional, organism-based. Also on record: dose 0.05 mg/kg.
Assay [14] deals with T6, Alpha-2B adrenergic receptor (Homo sapiens).

Consider `CCCc1ccccc1OC(C)C1=NCCN1` (stereo not drawn), for which the Ki (usually the equilibrium dissociation constant of an inhibitor or competing ligand from its target) was 0.0501 µM in assay [1], 0.148 µM in assay [2], 0.537 µM in assay [7] and 0.0138 µM in [12]. The pKi (in general, the negative decadic logarithm of the Ki, by convention in mol/L) in assay [3] is listed as under 6. For the same molecule, the Emax – broadly, the maximal effect, on the per cent scale that the assay sets – in [4] is 118%. Moreover, the Intrinsic activity is 0.75 in assay [5] and 0.6 in [9]. Also, the figures for the EC50 in assay [6] and in [10] were 0.0251 µM and 5.01 µM, respectively. The molecule also yielded a pD2 in assay [8] of 7.08. Moreover, the pKb (usually the Kb on a negative log10 scale, so that one unit is a factor of ten) in assay [11] was found to be 7.05.
Take `c1ccc(OC2CC2)c(OCC2=NCCN2)c1`: the Ki in assay [1] is 0.316 µM; in [2], 0.794 µM; in [7], 0.794 µM; in assay [12], 0.0794 µM. Further, in [3], the pKi was under 6. In addition, in assay [13], the Intrinsic activity is 1. Also, the EC50 (in general, the concentration at which the effect is half-maximal) in assay [6] was 1 µM; in assay [10], 3.16 µM. In assay [11], this molecule yielded a pKb of 6.22.
For `CC(Oc1ccccc1C1CC1)C1=NCCN1` (stereo not drawn), the outcome in the assay with Mus musculus was Active. For the same molecule, in assay [3], the pKi is listed as under 6. In addition, the Emax in assay [4] turned out to be 92%. Besides, the Intrinsic activity was determined as 0.9 in assay [5] and 0.7 in [9]. In assay [8], this molecule showed a pD2 of 7.24. Besides, in assay [11], the pKb is 7. Besides, the Ki in [12] is 0.00724 µM.
Take `C[C@H](Oc1ccccc1CC1CC1)C1=NCCN1`: the Intrinsic activity in assay [5] is 0.85; in assay [9], 0.7.
For `C=CCc1ccccc1O[C@H](C)C1=NCCN1`, the pEC50 result in assay [14] was “inactive”. In addition, the Intrinsic activity in assay [5] is 0.5. The molecule also registered a pD2 in assay [8] of under 5. In addition, in assay [11], the pKb amounted to 7.4.
For `c1ccc(OCC2=NCCN2)c(CC2CC2)c1`, the Ki in assay [1] was 0.0776 µM; in [2], 0.631 µM; in [7], 0.501 µM; in [12] it was 0.0832 µM. In [3], this molecule gave a pKi of 6.9. Besides, in assay [13], the Intrinsic activity worked out at 0.8. In addition, the results for the EC50 in assay [6] and in assay [10] were 0.234 µM and 1.7 µM, respectively. In [11], the pKb came to 6.35.
Turning to `CC(Oc1ccccc1OC1CC1)C1=NCCN1` (stereo not drawn), the pKi in assay [3] is given as under 6. Moreover, the figures for the Intrinsic activity in [5] and in assay [9] were 0.7 and 0.6, respectively. This molecule returned a pKb in [11] of 6.9. The molecule further gave a Ki in assay [12] of 0.0148 µM.
In the case of `C[C@@H](Oc1ccccc1CC1CC1)C1=NCCN1`, the Intrinsic activity in [5] is 0.75; in [9], 0.65.
With `C=CCc1ccccc1O[C@@H](C)C1=NCCN1`, the Intrinsic activity came out at 0.9 in assay [5] and 0.65 in assay [9]. This molecule yielded a pD2 in assay [8] of 7.19. Also, the pKb in assay [11] was 7.8.
The molecule `CC(Oc1ccccc1Br)C1=NCCN1` (stereo not drawn) registered a pKi in assay [3] of under 6. Moreover, the results for the Intrinsic activity in assay [5] and in assay [9] were 0.87 and 0.4, respectively. In [11], this molecule came in with a pKb of 7.04. Further, the affinity in [12] corresponds to a Ki of 0.148 µM.
For the molecule `C=CCc1ccccc1OC(C)C1=NCCN1` (stereo not drawn) [ALLYPHENYLINE], the outcome in the assay with Mus musculus was Active. In [14], the pEC50 result is “inactive”. In addition, the pKi in assay [3] was under 6. The Intrinsic activity in assay [5] was found to be 0.9. This molecule also returned a pD2 in assay [8] of 6.86. Moreover, the pKb in [11] was determined as 7.4.
`Brc1ccccc1OCC1=NCCN1`: the Ki in assay [1] was 0.0955 µM; in assay [2] it was 0.398 µM; in assay [7], 0.617 µM; in assay [12], 0.562 µM. Also, the pKi in [3] stood at 7.9. Also, the Intrinsic activity in assay [13] stood at 0.88. Further, the figures for the EC50 in [6] and in assay [10] were 0.0977 µM and 1.26 µM, respectively. For the same molecule, the pKb in assay [11] worked out at 6.72.
In the case of `CC(Oc1ccccc1CC1CC1)C1=NCCN1` (stereo not drawn) [CYCLOMETHYLINE], the result in the assay with Mus musculus was Active. The molecule further registered a pKi in assay [3] of under 6. Besides, the values for the Intrinsic activity in [5] and in [9] were 0.8 and 0.7, respectively.
In [3], `c1ccc(C2CC2)c(OCC2=NCCN2)c1` [CIRAZOLINE] displayed a pKi of 8.35. Moreover, the Intrinsic activity in assay [13] is 0.8. The molecule further registered a pKb in assay [11] of 6.4. Moreover, the affinity in assay [12], expressed as Ki, was 0.0347 µM.
